Test results as given in paper PMC5288202, “Simultaneous inhibition of Vps34 kinase would enhance PI3Kδ inhibitor cytotoxicity in the B-cell malignancies” (Oncotarget, 2016).

Columns and labels:
PI4KA = target: T1, PI4KA (Homo sapiens, UniProt P42356); assay: ADP-Glo biochemical assay; conditions: 50 μM ATP, read-out: IC50 against PI4KA
T1 construct: purchased Invitrogen

MOLM-14 = assay: Anti-proliferative effect; format: cell-based; conditions: AML (FLT3-ITD)
primary CLL cells = assay: Growth of patient primary cells; format: cell-based; conditions: CLL cell, 72 hours, read-out: cell proliferation inhibited
Text: Peripheral blood mononuclear cells (PBMCs) from individuals with CLL were isolated by density centrifugation through Ficoll and frozen for each subject. Those subjects with low white counts whose CLL cell purity was expected to be < 85% underwent B cell isolation using RosetteSep. The protocol was approved by the Dana-Farber Harvard Cancer Center Institutional Review Board and all subjects signed written informed consent prior to participation.

MV4-11 [1] = assay: Autophagy markers LC3BII and p62 (immunoblotting); format: cell-based
SKM-1 = assay: Anti-proliferative effect; format: cell-based; conditions: Homo sapiens, SKM-1, read-out: GI50 SKM-1
Namalwa = assay: Anti-proliferative effect; format: cell-based; conditions: read-out: GI50 Namalwa
PI3Kβ = target: T2, PI3Kβ (Mus musculus, UniProt Q8BTI9); assay: PI3K isoforms cellular selectivity assay (AKT phosphorylation, NIH-3T3, LPA); format: cell-based; conditions: NIH-3T3 cells, LPA stimulation
T2 construct: endogenous in cells; host or cells: NIH-3T3
Method: (§1) Cells were lysed and AKT phosphorylation was determined by Western Blotting. Intensity of the bands was determined using ImageJ 1.42q (NIH, USA) and normalized to total AKT (loading control).

mTORC1 kinase = mTORC1 kinase (Homo sapiens, UniProt P42345); assay: in vitro IP kinase assay; format: biochemical; conditions: activity-based in vitro IP kinase assay; read-out: EC50 mTORC1 kinase inhibition
protein kinases = assay: DiscoveRx's KinomeScan selectivity profile; format: binding; conditions: 1 μM
MEC-2 [2] = assay: Cell cycle analysis; format: cell-based; conditions: MEC-2, 48 h treatment
MEC-2 [3] = assay: Colony formation (colonogenic assay); format: cell-based; conditions: MEC2; CLL
MV4-11 [4] = assay: Anti-proliferative effect; format: cell-based; conditions: AML (FLT3-ITD)
PIK3C2A = target: T3, PIK3C2A (Homo sapiens, UniProt O00443); assay: ADP-Glo biochemical assay; conditions: 50 μM ATP, read-out: IC50 against PIK3C2A
T3 construct: purchased Invitrogen

MEC-2 [5] = assay: Anti-proliferative effect; format: cell-based; conditions: MEC2, read-out: GI50 MEC-2
HT = assay: Anti-proliferative effect; format: cell-based; conditions: Homo sapiens, read-out: GI50 HT
OCI-AML-2 [6] = assay: Cell cycle analysis; format: cell-based; conditions: OCI-AML-2, 48 h treatment
MEC-2 [7] = assay: Induction of apoptosis (PARP cleavage); format: cell-based; conditions: MEC-2, evident at 3 μM to 10 μM
OCI-AML-2 [8] = assay: Anti-proliferative effect; format: cell-based; conditions: Homo sapiens, OCI-AML2, read-out: GI50 OCI-AML-2
HEL = assay: Anti-proliferative effect; format: cell-based; conditions: Homo sapiens, read-out: GI50 HEL
PIK3C2B = target: T4, PIK3C2B (Homo sapiens, UniProt O00750); assay: ADP-Glo biochemical assay; conditions: 50 μM ATP, read-out: IC50 against PIK3C2B
T4 construct: purchased Invitrogen

Ramos = assay: Anti-proliferative effect; format: cell-based; conditions: Homo sapiens, read-out: GI50 Ramos
OCI-AML-3 = assay: Induction of apoptosis (PARP cleavage); format: cell-based; conditions: OCI-AML-3, concentrations up to 10 μM
mTOR kinase = target: T5, mTOR kinase (Homo sapiens, UniProt P42345); assay: DiscoveRx's KinomeScan binding; conditions: read-out: % control number, mTOR
T5 construct: purchased DiscoveRx (KinomeScan platform)

PI3Kα [9] = target: T6, PI3Kα (Homo sapiens, UniProt P42336); assay: ADP-Glo biochemical assay; conditions: purified protein, 10 μM ATP, read-out: IC50 against PI3Kα (PIK3CA)
T6 construct: purchased Invitrogen

PI3Kα [10] = target: T7, PI3Kα (Mus musculus, UniProt P42337); assay: PI3K isoforms cellular selectivity assay (AKT phosphorylation, NIH-3T3, PDGF-BB); format: cell-based; conditions: NIH-3T3 cells, PDGF-BB stimulation
T7 construct: endogenous in cells; host or cells: NIH-3T3 (ATCC)
Method: as §1

U937 = assay: Anti-proliferative effect; format: cell-based; conditions: Homo sapiens, U-937, read-out: GI50 U937
[11] = system: PI3Kδ-mediated signaling in OCI-AML-2, OCI-AML-3, MV4-11 and MEC-2 cell lines; assay: PI3Kδ-mediated signaling pathway (immunoblotting); format: cell-based; conditions: all four cell lines
Text: The following antibodies were purchased from Cell Signaling Technology: Akt(#4691), Phospho-Akt(Thr308)(#4056), Phospho-Akt(Ser473)(#4060), GAPDH, GSK-3β(#9315), Phospho-GSK-3β(#9323), FoxO1(#2880), Phospho-FoxO1 (Thr24)/FoxO3a(Thr32)/FoxO4(Thr28)(#2599), PRAS40(#2691), Phospho-PRAS40 (Thr246)(#2997), 4E-BP1(#9644), p70 S6K(#2708), Phospho-p70 S6K (Thr389)(#9234). SQSTM1/p62 (D5E2)(#8025), LC3B(#12513). PARP(#9532), Caspase-3(#9665), Phospho-p44/42 MAPK (Erk1/2) (Thr202/Tyr204)(#4377), p44/42 MAPK (Erk1/2) (#4695), Phospho-NF-ΚB P65 (Ser 536)(#3033), NF-ΚB P65(#4764). Lysophosphatidic Acid (#sc-201053, Santa Cruz), Recombinant Human PDGF-BB (#220-BB, R&D), Recombinant Human C5a (Peprotech, #300-70), goat anti-IgM (#5C07615, Meridian). LC3B antibody (#3868, CST). Tubulin antibody (#8035, Santa Cruz). EEA1 antibody (#610456, BD Bioscience) and LAMP1 antibody (#24170, Abcam). Secondary antibodies, Alexa488-anti-mouse, Alexa594-anti-rabbit and Prolong gold mounting medium with DAPI were purchased from Invitrogen.

T3 sequence (O00443 whole entry): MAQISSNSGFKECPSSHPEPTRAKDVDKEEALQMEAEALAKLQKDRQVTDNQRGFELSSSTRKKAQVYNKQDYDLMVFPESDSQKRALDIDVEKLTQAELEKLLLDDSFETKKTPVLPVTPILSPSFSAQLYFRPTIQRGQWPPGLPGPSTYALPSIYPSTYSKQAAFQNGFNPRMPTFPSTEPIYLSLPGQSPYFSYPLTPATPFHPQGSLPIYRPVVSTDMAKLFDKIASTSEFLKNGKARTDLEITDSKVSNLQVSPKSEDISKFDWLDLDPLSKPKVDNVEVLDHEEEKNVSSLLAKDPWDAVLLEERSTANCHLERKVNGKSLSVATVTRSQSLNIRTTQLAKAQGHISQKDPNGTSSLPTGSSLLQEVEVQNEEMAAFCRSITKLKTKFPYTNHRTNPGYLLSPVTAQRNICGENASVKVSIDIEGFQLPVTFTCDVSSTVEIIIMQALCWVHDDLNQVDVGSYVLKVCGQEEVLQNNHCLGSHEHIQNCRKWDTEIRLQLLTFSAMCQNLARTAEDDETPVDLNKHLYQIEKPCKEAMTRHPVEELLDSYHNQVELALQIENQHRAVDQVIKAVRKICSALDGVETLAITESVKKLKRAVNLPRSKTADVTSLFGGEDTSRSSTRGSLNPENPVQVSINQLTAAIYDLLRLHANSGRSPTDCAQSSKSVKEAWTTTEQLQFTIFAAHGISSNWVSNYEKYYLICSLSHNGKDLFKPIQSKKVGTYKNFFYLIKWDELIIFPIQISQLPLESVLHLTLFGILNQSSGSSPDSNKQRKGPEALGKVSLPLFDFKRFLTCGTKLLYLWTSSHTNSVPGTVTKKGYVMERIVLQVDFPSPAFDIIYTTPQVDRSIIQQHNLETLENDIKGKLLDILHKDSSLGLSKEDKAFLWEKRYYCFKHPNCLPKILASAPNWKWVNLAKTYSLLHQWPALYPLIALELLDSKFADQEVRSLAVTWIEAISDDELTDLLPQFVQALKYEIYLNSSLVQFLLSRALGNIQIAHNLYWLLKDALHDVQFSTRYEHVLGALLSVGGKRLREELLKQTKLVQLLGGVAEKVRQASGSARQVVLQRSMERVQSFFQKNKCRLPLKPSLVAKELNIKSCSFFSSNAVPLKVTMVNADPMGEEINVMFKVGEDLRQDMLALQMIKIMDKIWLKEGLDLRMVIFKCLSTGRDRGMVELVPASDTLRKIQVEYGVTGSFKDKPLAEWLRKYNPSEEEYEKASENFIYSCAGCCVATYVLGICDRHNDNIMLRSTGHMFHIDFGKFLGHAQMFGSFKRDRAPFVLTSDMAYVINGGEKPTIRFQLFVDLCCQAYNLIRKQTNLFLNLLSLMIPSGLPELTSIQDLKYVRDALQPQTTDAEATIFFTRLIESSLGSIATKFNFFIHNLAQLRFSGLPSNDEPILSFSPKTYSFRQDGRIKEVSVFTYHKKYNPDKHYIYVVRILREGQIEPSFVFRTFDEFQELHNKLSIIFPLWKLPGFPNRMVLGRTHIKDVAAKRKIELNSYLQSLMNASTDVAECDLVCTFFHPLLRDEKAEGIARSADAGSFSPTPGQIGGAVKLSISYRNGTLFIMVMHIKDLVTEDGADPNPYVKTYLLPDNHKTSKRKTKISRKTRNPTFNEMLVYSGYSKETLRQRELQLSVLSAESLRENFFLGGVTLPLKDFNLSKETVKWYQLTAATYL
T4 sequence (O00750 whole entry): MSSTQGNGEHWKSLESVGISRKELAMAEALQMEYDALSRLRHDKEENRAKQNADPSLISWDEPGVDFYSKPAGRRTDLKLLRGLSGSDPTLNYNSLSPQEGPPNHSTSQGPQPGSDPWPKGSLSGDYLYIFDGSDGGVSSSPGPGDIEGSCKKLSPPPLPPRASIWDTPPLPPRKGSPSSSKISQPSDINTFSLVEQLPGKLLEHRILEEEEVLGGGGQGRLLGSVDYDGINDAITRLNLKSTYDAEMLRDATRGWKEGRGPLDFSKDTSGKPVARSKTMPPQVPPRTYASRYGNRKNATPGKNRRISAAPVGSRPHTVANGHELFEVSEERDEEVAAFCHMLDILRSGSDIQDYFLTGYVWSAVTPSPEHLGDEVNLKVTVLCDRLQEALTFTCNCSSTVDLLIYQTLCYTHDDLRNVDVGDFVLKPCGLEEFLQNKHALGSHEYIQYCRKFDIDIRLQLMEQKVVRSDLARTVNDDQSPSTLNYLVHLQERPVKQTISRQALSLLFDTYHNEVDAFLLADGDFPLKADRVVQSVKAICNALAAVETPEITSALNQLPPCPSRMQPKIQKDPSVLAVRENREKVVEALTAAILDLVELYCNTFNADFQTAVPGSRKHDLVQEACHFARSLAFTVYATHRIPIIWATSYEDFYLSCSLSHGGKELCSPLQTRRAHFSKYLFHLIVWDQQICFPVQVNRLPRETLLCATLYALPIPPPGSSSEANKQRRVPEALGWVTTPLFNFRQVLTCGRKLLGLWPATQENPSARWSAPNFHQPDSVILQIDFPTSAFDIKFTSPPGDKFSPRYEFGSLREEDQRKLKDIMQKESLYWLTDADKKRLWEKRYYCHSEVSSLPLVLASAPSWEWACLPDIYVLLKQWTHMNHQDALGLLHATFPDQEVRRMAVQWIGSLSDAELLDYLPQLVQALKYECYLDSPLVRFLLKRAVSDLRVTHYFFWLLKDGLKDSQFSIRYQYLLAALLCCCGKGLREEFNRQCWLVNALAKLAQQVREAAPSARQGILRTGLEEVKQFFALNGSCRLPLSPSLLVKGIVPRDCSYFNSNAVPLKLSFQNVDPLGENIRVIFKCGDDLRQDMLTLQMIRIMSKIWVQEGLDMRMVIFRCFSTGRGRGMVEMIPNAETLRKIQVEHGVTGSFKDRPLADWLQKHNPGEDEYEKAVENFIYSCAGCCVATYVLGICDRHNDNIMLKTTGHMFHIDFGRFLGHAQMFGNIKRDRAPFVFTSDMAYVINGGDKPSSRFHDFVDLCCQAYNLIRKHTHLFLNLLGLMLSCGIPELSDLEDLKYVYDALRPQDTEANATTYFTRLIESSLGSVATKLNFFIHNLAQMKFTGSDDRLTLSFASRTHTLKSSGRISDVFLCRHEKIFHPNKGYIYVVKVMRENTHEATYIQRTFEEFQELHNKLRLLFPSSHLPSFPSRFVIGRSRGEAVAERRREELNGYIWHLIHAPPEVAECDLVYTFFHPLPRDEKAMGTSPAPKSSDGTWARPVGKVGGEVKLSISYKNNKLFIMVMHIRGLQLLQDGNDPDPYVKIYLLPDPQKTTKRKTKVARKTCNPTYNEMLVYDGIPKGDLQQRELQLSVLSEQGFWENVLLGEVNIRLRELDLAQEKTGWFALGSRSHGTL
T6 sequence (P42336 whole entry): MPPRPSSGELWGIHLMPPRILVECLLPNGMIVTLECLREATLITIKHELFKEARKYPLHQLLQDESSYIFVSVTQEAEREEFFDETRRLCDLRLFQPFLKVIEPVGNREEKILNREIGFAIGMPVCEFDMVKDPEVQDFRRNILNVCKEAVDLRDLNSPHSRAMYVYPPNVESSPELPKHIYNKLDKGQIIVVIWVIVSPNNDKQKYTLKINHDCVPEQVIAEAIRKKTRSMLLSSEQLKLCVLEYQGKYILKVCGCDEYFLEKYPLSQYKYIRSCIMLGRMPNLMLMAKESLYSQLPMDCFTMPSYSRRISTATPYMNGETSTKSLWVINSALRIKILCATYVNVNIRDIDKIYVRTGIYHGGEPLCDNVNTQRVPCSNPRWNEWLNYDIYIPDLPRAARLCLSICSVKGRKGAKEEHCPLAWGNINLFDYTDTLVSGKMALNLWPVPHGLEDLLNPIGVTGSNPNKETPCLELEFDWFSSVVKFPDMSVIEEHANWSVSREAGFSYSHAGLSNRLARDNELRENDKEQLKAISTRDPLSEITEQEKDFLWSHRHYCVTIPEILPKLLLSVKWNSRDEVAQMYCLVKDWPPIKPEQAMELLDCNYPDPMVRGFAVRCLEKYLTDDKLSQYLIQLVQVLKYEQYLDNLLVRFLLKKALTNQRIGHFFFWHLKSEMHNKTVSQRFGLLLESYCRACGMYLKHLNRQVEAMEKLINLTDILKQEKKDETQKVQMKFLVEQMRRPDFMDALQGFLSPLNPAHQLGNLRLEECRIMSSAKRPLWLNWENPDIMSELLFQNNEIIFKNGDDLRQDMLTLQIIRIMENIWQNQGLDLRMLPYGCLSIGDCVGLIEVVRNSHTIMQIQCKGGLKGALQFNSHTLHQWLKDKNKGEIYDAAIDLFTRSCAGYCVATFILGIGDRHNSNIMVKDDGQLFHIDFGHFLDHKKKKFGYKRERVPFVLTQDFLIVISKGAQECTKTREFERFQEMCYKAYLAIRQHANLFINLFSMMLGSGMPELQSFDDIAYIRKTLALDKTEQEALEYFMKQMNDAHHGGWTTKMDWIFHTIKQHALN
T6 sequence (P27986 whole entry partner): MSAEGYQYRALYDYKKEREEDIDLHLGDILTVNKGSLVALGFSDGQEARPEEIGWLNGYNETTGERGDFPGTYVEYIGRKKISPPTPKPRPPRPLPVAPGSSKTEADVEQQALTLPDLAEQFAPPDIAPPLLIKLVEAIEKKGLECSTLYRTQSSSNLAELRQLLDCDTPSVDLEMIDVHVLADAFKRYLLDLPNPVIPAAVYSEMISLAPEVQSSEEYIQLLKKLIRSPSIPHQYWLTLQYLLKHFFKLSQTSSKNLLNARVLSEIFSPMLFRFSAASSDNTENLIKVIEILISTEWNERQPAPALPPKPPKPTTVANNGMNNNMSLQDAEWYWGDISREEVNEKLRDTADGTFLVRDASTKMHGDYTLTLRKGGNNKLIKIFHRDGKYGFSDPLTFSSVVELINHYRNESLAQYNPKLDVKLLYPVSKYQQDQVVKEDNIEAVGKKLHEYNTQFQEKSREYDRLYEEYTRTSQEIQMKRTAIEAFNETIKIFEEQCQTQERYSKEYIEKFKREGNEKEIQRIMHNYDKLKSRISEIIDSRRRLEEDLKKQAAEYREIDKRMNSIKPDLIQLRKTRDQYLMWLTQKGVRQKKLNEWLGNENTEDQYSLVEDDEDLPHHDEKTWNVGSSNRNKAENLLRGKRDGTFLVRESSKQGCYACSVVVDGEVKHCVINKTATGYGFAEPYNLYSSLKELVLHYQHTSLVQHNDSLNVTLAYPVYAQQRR

Q: With `Cc1nc(NC(=O)CN)sc1-c1cnc(Cl)c(NS(=O)(=O)c2ccc(C(C)(C)C)cc2)c1` [PI3KD/V-IN-01, 2-amino-N-(5-(5-(4-tert-butylphenylsulfonamido)-6-chloropyridin-3-yl)-4-methylthiazol-2-yl)acetamide] as the compound, how does the IC50 (PI4KA) read?
A: > 10000 nM

Q: What about the GI50 (MOLM-14) of the same compound?
A: 510 nM

Q: What about the GI50 (MOLM-14; Homo sapiens, MOLM-14) of the same compound?
A: < 1000 nM

Q: And the inhibition at 1 µM (primary CLL cells)?
A: ~50%

Q: And the “levels of the autophagy markers, LC3BII and p62” value (MV4-11 [1])?
A: not observed

Q: What about the GI50 (SKM-1) of the same compound?
A: 1000 nM

Q: What about the GI50 (Namalwa) of the same compound?
A: 1300 nM

Q: What about the EC50 (PI3Kβ) of the same compound?
A: > 3000 nM

Q: What about the EC50 (mTORC1 kinase) of the same compound?
A: 1700 nM

Q: What about the “S score (5)” value (protein kinases) of the same compound?
A: 0.00

Q: What about the cell cycle progression (MEC-2 [2]) of the same compound?
A: arrested in the G0/G1 phase

Q: What about the EC50 (MEC-2 [3]) of the same compound?
A: 1580 nM

Q: And the GI50 (MV4-11 [4])?
A: 780 nM

Q: What about the GI50 (MV4-11 [4]; Homo sapiens, MV4-11) of the same compound?
A: < 1000 nM

Q: What about the IC50 (PIK3C2A) of the same compound?
A: > 10000 nM

Q: What about the GI50 (MEC-2 [5]) of the same compound?
A: 2400 nM

Q: And the GI50 (HT)?
A: 1900 nM

Q: And the cell cycle progression (OCI-AML-2 [6])?
A: no apparent cell cycle inhibition

Q: What about the induction of apoptosis (MEC-2 [7]) of the same compound?
A: only a modest induction of apoptosis

Q: What about the GI50 (OCI-AML-2 [8]) of the same compound?
A: 1000 nM

Q: What about the GI50 (HEL) of the same compound?
A: > 10000 nM

Q: What about the IC50 (PIK3C2B) of the same compound?
A: > 10000 nM

Q: And the GI50 (Ramos)?
A: 5400 nM

Q: What about the induction of apoptosis (OCI-AML-3) of the same compound?
A: no apoptosis was observed

Q: What about the remaining binding at 1 µM (mTOR kinase) of the same compound?
A: 0%

Q: What about the IC50 (PI3Kα [9]) of the same compound?
A: 64 nM

Q: What about the EC50 (PI3Kα [10]) of the same compound?
A: 2970 nM

Q: What about the GI50 (U937) of the same compound?
A: 2200 nM

Q: And the “Activity of GSK3β and NFκB” value [11]?
A: not affected

Q: And the “Phosphorylation of 4EBP1” value [11]?
A: not inhibited

Q: And the “effect on pAKT(T308, S473), pFOXO1, pPRAS40 and pS6K” value [11]?
A: inhibition of pAKT(T308, S473) and downstream pFOXO1, pPRAS40 and pS6K
